Reference: US20030153618A1, “Treatment and prevention of herpes simplex infections” (priority 1999, published 2003)

Assays:
HSV, Type II = assay: Direct plaque-forming unit (PFU) count in BSC cells in defined media with set lysine (or derivative):arginine ratio; type: cell-based; conditions: average of three tests
Procedure: Absorbed virons were absorbed in susceptible cells in chemically defined media and the number of plaques made were counted. (See Davis, B. D., et al., Microbiology, 2nd Ed., Harper & Row, 1973, Part V, and sources cited therein for procedural details and discussion of the plaque method.)
The cell line chosen was green monkey kidney cells (BSC) that have been passed greater than 41 times. […] The virons were added to a confluent lawn of BSC cells and allowed to absorb at 25° C. for one hour. The unabsorbed virons and the media were removed by washing three times in PBS. […] The control media contained a lysine/arginine ratio of 1:1. The plaques were counted when easily readable. Flasks are done in triplicate.

Herpes simplex II virus = assay: Back titration plaque assay: PFU counts at stated amounts of compound under test and arginine; type: cell-based, Herpes simplex II virus (BSC cells)
Procedure: The following experiments were conducted by back titration: Herpes simplex II virus from laboratory stocks was used. BSC cells were grown to confluence in Eagles medium with 15% fetal calf serum, 150 units per milliliter of penicillin and 100 micrograms per milliliter of streptomycin. The cultures were inoculated with 500 PFU of HS II. The virons were allowed to absorb for one hour at 25° C. The tissue cultures were then washed three times with sterile PBS to remove excess media and non-absorbed virons. The cells were then incubated at 37° C. until four-plus cytopathic effects were observed. The cells were then disrupted by slow freeze-thaw two times. The suspension was then clarified by slow speed centrifugation at 4° C. The supemanant suspension was then added to confluent BSC cultures. After one hour absorption, the cells were washed with PBS twice. The cells were overlaid in defined reagent (in triplicate) Eagles media in noble agar. The cells were then incubated at 37° C. until the plaques were easily counted, usually 40 t 72 hours. the cells were then washed two times with PBS and then fixed with 10% H2CO and a 2% sodium acetate. The cells were then stained in 0.1% crystal violet in ethanol. In the tables which follow the concentration of the compound to be tested, in micrograms per milliliter, is listed across the top of the table and the concentration of arginine in micrograms per milliliter is listed down the left side of the table, the count of plaque-forming units being shown in the matrix.

Compound: CC(N)CCCC(N)C(=O)O (stereo not shown) [6-Methyl lysine]
- P.F.U. Count (HSV, Type II; Compound Ratio to Arginine 10:1): <5
- P.F.U. Count (HSV, Type II; Compound Ratio to Arginine 100:1): <5
- order of blocking the arginine molecule (rank of efficacy) (Herpes simplex II virus; among the tested derivatives): third most efficacious
- P.F.U. Count (Herpes simplex II virus; compound 10 μg/ml, arginine 0 μg/ml): 0
- P.F.U. Count (Herpes simplex II virus; compound 10 μg/ml, arginine 2.5 μg/ml): 0
- P.F.U. Count (Herpes simplex II virus; compound 10 μg/ml, arginine 5.0 μg/ml): 0
- P.F.U. Count (Herpes simplex II virus; compound 10 μg/ml, arginine 7.5 μg/ml): 0
- P.F.U. Count (Herpes simplex II virus; compound 10 μg/ml, arginine 10 μg/ml): 4.0 × 10^3
- P.F.U. Count (Herpes simplex II virus; compound 10 μg/ml, arginine 15 μg/ml): 1.8 × 10^3
- P.F.U. Count (Herpes simplex II virus; compound 10 μg/ml, arginine 20 μg/ml): 2.8 × 10^6
- P.F.U. Count (Herpes simplex II virus; compound 10 μg/ml, arginine 25 μg/ml): 2.7 × 10^5
- P.F.U. Count (Herpes simplex II virus; compound 25 μg/ml, arginine 0 μg/ml): 0
- P.F.U. Count (Herpes simplex II virus; compound 25 μg/ml, arginine 2.5 μg/ml): 0
- P.F.U. Count (Herpes simplex II virus; compound 25 μg/ml, arginine 5.0 μg/ml): 0
- P.F.U. Count (Herpes simplex II virus; compound 25 μg/ml, arginine 7.5 μg/ml): 0
- P.F.U. Count (Herpes simplex II virus; compound 25 μg/ml, arginine 10 μg/ml): 2.1 × 10^3
- P.F.U. Count (Herpes simplex II virus; compound 25 μg/ml, arginine 15 μg/ml): 2.1 × 10^3
- P.F.U. Count (Herpes simplex II virus; compound 25 μg/ml, arginine 20 μg/ml): 2.4 × 10^5
- P.F.U. Count (Herpes simplex II virus; compound 25 μg/ml, arginine 25 μg/ml): 2.9 × 10^5
- P.F.U. Count (Herpes simplex II virus; compound 50 μg/ml, arginine 0 μg/ml): 0
- P.F.U. Count (Herpes simplex II virus; compound 50 μg/ml, arginine 2.5 μg/ml): 0
- P.F.U. Count (Herpes simplex II virus; compound 50 μg/ml, arginine 5.0 μg/ml): 0
- P.F.U. Count (Herpes simplex II virus; compound 50 μg/ml, arginine 7.5 μg/ml): 0
- P.F.U. Count (Herpes simplex II virus; compound 50 μg/ml, arginine 10 μg/ml): 0
- P.F.U. Count (Herpes simplex II virus; compound 50 μg/ml, arginine 15 μg/ml): 1.7 × 10^3
- P.F.U. Count (Herpes simplex II virus; compound 50 μg/ml, arginine 20 μg/ml): 1.7 × 10^5
- P.F.U. Count (Herpes simplex II virus; compound 50 μg/ml, arginine 25 μg/ml): 2.0 × 10^5
- P.F.U. Count (Herpes simplex II virus; compound 100 μg/ml, arginine 0 μg/ml): 0
- P.F.U. Count (Herpes simplex II virus; compound 100 μg/ml, arginine 2.5 μg/ml): 0
- P.F.U. Count (Herpes simplex II virus; compound 100 μg/ml, arginine 5.0 μg/ml): 0
- P.F.U. Count (Herpes simplex II virus; compound 100 μg/ml, arginine 7.5 μg/ml): 0
- P.F.U. Count (Herpes simplex II virus; compound 100 μg/ml, arginine 10 μg/ml): 0
- P.F.U. Count (Herpes simplex II virus; compound 100 μg/ml, arginine 15 μg/ml): 0
- P.F.U. Count (Herpes simplex II virus; compound 100 μg/ml, arginine 20 μg/ml): 6.4 × 10^4
- P.F.U. Count (Herpes simplex II virus; compound 100 μg/ml, arginine 25 μg/ml): 5.8 × 10^4
- P.F.U. Count (Herpes simplex II virus; compound 200 μg/ml, arginine 0 μg/ml): 0
- P.F.U. Count (Herpes simplex II virus; compound 200 μg/ml, arginine 2.5 μg/ml): 0
- P.F.U. Count (Herpes simplex II virus; compound 200 μg/ml, arginine 5.0 μg/ml): 0
- P.F.U. Count (Herpes simplex II virus; compound 200 μg/ml, arginine 7.5 μg/ml): 0
- P.F.U. Count (Herpes simplex II virus; compound 200 μg/ml, arginine 10 μg/ml): 0
- P.F.U. Count (Herpes simplex II virus; compound 200 μg/ml, arginine 15 μg/ml): 0
- P.F.U. Count (Herpes simplex II virus; compound 200 μg/ml, arginine 20 μg/ml): 6.9 × 10^4
- P.F.U. Count (Herpes simplex II virus; compound 200 μg/ml, arginine 25 μg/ml): 4.7 × 10^4
- P.F.U. Count (Herpes simplex II virus; compound 300 μg/ml, arginine 0 μg/ml): 0
- P.F.U. Count (Herpes simplex II virus; compound 300 μg/ml, arginine 2.5 μg/ml): 0
- P.F.U. Count (Herpes simplex II virus; compound 300 μg/ml, arginine 5.0 μg/ml): 0
- P.F.U. Count (Herpes simplex II virus; compound 300 μg/ml, arginine 7.5 μg/ml): 0
- P.F.U. Count (Herpes simplex II virus; compound 300 μg/ml, arginine 10 μg/ml): 0
- P.F.U. Count (Herpes simplex II virus; compound 300 μg/ml, arginine 15 μg/ml): 0
- P.F.U. Count (Herpes simplex II virus; compound 300 μg/ml, arginine 20 μg/ml): 5.0 × 10^3
- P.F.U. Count (Herpes simplex II virus; compound 300 μg/ml, arginine 25 μg/ml): 4.0 × 10^4
- P.F.U. Count (Herpes simplex II virus; compound 400 μg/ml, arginine 0 μg/ml): 0
- P.F.U. Count (Herpes simplex II virus; compound 400 μg/ml, arginine 2.5 μg/ml): 0
- P.F.U. Count (Herpes simplex II virus; compound 400 μg/ml, arginine 5.0 μg/ml): 0
- P.F.U. Count (Herpes simplex II virus; compound 400 μg/ml, arginine 7.5 μg/ml): 0
- P.F.U. Count (Herpes simplex II virus; compound 400 μg/ml, arginine 10 μg/ml): 0
- P.F.U. Count (Herpes simplex II virus; compound 400 μg/ml, arginine 15 μg/ml): 0
- P.F.U. Count (Herpes simplex II virus; compound 400 μg/ml, arginine 20 μg/ml): 690
- P.F.U. Count (Herpes simplex II virus; compound 400 μg/ml, arginine 25 μg/ml): 3.9 × 10^3
- P.F.U. Count (Herpes simplex II virus; compound 500 μg/ml, arginine 0 μg/ml): 0
- P.F.U. Count (Herpes simplex II virus; compound 500 μg/ml, arginine 2.5 μg/ml): 0
- P.F.U. Count (Herpes simplex II virus; compound 500 μg/ml, arginine 5.0 μg/ml): 0
- P.F.U. Count (Herpes simplex II virus; compound 500 μg/ml, arginine 7.5 μg/ml): 0
- P.F.U. Count (Herpes simplex II virus; compound 500 μg/ml, arginine 10 μg/ml): 0
- P.F.U. Count (Herpes simplex II virus; compound 500 μg/ml, arginine 15 μg/ml): 0
- P.F.U. Count (Herpes simplex II virus; compound 500 μg/ml, arginine 20 μg/ml): 56
- P.F.U. Count (Herpes simplex II virus; compound 500 μg/ml, arginine 25 μg/ml): 3.71 × 10^3
